Experimental data reported in patent US20180289692A1, “TLR MODULATORS AND METHODS OF USE” (CELGENE CORPORATION, priority 2015, published 2018).
Read-outs that look alike come from different tables or passages of the source. Oligonucleotides are written 5' to 3', each unit as a sugar letter and its base; * is a phosphorothioate linkage, no mark a phosphodiester; rarer units and linkages stand in square brackets, end groups in braces. Plain capitals give the bases only. d = 2'-deoxy (DNA)

Key:
SMAD7 protein = SMAD7 protein levels in human pDCs by FACS; type: cell-based; conditions: 24 hrs or 48 h, any indicated concentration, no transfection
Description: PBMC from healthy donors were isolated from Buffy Coat blood (Blood Center of NY) by density-gradient centrifugation over Ficoll-Hypaque (Pharmacia Biotech). The cells were washed with PBS and re-suspended in RPMI-1640 Media with 10% inactivated fetal bovine serum, penicillin (100 U/ml) and streptomycin (100 μg/ml) and 2 mM L-glutamine (complete medium, Life Technologies). PBMC were treated with ODNs for indicated time periods at indicated concentrations, generally between 0.0001 μM and 10 μM, with CD40L plus anti-HisTag antibody, or with a vehicle control (endotoxin-free sterile water control). No transfection reagent was added with the ODNs.
SMAD7 protein levels were determined using standard FACS protocols. PBMCs were incubated on ice in the presence of Fc-Block (BD Pharmingen) for 20 minutes, washed, and incubated with antibodies specific for surface molecules or isotype-matched control mAbs. PECY-7-labeled anti-human CCR6 mAb, and PerCP-Cy5.5 labeled anti-human CD123 mAb were purchased from BD Biosciences. SMAD7 antibody was purchased from Biorbyt, Cambridge, UK. The stained cells were then subjected to FACS (FACSCanto, BD Biosciences) using the FACSDiva software. FACS analysis was performed using FlowJo software. Single, viable cells in the CCR6+CD123+ pDC gates were used for analysis of, e.g., SMAD7 protein levels.

[1] = tested on: canonical NF-κB promoter reporter; assay: Mouse Raw Blue Reporter Cells, SEAP reporter driven by canonical NF-κB promoter (FIG. 11); type: cell-based; conditions: mouse macrophages, 24 hrs
Description: Mouse Raw Blue Reporter Cells (Invivogen), containing a secreted embryonic alkaline phosphatase (SEAP) reporter gene driven by canonical NF-κB promoter, were plated in 96-well plates at 50,000 cells/well in DMEM Media supplemented with 10% FBS, 2 mM L-glutamine, 1% Pen/Strep, […] Normacin. […] The supernatant was harvested and tested for SEAP production by measuring OD at 630 nm.

mouse macrophages = assay: TNFα and IL-10 production in mouse macrophages (Raw Blue cells), MagPix; type: cell-based; conditions: 24 hrs
Description: Mouse Raw Blue Reporter Cells (Invivogen) were plated in 96-well plates at 50,000 cells/well in DMEM Media supplemented with 10% FBS, 2 mM L-glutamine, 1% Pen/Strep, […] Normacin. […] The supernatant was harvested and tested for TNFα and IL-10 production using MagPix Multi-Plex technology.

TLR7 = molecular target: T1, TLR7 (Homo sapiens, UniProt Q9NYK1); assay: Inhibition of TLR7 (imiquimod)-induced IFNα and IP10 (CXCL10) in PBMCs; type: cell-based
T1 construct: endogenous in cells; host or cells: human PBMCs from healthy donors
T1 sequence (Q9NYK1 27-1049): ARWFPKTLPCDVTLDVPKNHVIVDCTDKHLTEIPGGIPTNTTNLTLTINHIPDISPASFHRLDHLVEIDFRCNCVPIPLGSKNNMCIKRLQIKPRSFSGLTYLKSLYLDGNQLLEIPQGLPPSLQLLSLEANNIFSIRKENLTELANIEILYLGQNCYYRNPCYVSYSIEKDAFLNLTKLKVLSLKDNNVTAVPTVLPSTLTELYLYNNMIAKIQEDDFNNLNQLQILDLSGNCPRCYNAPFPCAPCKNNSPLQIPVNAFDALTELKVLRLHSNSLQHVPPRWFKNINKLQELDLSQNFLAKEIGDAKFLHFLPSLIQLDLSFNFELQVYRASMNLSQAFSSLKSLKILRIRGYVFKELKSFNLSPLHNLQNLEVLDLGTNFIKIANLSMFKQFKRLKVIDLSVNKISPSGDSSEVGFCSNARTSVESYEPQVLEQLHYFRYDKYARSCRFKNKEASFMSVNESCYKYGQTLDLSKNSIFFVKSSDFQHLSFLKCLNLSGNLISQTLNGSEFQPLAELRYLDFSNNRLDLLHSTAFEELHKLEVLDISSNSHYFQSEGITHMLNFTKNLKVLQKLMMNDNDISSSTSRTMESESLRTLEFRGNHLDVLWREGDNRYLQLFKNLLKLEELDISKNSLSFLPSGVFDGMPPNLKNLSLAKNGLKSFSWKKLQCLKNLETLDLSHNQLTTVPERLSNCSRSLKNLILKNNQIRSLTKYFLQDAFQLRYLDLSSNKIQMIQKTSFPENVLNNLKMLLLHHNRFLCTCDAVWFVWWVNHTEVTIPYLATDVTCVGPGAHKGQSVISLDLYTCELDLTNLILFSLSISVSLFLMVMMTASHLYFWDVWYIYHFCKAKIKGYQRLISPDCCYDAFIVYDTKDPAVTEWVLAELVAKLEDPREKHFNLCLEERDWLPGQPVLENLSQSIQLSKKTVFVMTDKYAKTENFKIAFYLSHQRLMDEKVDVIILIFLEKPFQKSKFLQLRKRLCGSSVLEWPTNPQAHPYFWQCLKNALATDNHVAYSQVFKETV
Description: After 24 hours, the supernatant was harvested and tested for IFNα using MagPix Multi-Plex technology.

[2] = tested on: ulcerative colitis patients; conditions: clinical studies, subset of UC patients; cited from earlier work

## ODN150: 5′-G*G*A*ACAGTTCGTCCAT*G*G*C-3′, PO except * = PS; antisense to p65 of NF-kB mRNA; tested clinically for ulcerative colitis (DNA dG*dG*dA*dAdCdAdGdTdTdCdGdTdCdCdAdT*dG*dG*dC)
SMAD7 protein
  effect on SMAD7 protein levels: do not affect
[1]
  concentration from which the NF-κB reporter is activated: 10 µM
[1]; SEAP, COMPOUND (I) up to 10 μM
  activation of canonical NF-κB reporter: activate
Mouse macrophages; FIG. 12, COMPOUND (I) up to 10 μM
  TNFα protein expression: induce
Mouse macrophages; FIG. 13, COMPOUND (I) up to 10 μM
  IL-10 protein expression: induce
TLR7; Imiquimod 5 μg/ml 24 hours, FIGS. 8B, 9A, read-out: IC50, TLR7-mediated IFNα induction
  IC50: > 10 µM
TLR7; imiquimod, FIG. 9B, read-out: IC50, TLR7-mediated IP10 (CXCL10) induction
  IC50: > 10 µM
[2]
  clinical effect in ulcerative colitis: some moderate beneficial effects
